From ChEMBL document CHEMBL4364255, “3,4-Dideoxy-3,3,4,4-tetrafluoro- and 4-OH epimeric 3-deoxy-3,3-difluoro-α-GalCer analogues: Synthesis and biological evaluation on human iNKT cells stimulation” (Eur J Med Chem, 2019)
Calls of active or inactive are those of the source. No cut-off for these calls is given here.

Legend:
Assay type in all cases: cell-based
[1] = tested on: iNKT; assay: Effect on human iNKT MAD11 cells stimulation assessed as increase in IL-13 production pretreated with HeLa cells for overnight prior to iNKT MAD11 cells addition and measured after 24 hrs by ELISA
[2] = biological target: T1, Antigen-presenting glycoprotein CD1d (Homo sapiens) (UniProt P15813); assay: Binding affinity to human CD1d expressed in human HeLa cells assessed as increase in IFNgamma production at 10 uM to 10^-4 uM incubated overnight prior to iNKT MAD11 cells addition to CD1d-compound mixture and measured after 6 hrs by ELISA
T1 sequence (whole entry): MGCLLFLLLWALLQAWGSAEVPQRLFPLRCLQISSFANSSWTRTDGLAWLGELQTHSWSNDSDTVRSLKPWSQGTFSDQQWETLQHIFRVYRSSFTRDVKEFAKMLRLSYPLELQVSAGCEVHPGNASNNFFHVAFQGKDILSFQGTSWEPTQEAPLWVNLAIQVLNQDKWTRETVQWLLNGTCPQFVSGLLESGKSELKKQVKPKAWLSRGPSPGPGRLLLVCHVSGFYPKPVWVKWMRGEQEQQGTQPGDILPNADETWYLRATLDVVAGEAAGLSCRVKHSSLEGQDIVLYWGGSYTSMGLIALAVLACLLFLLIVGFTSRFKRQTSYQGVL

[3] = biological target: T1, Antigen-presenting glycoprotein CD1d (Homo sapiens); assay: Binding affinity to human CD1d expressed in human HeLa cells assessed as increase in IL-13 production at 10 uM to 10^-4 uM incubated overnight prior to iNKT MAD11 cells addition to CD1d-compound mixture and measured after 24 hrs by ELISA
[4] = tested on: iNKT; assay: Effect on human iNKT MAD11 cells stimulation assessed as increase in IFNgamma production pretreated with HeLa cells for overnight prior to iNKT MAD11 cells addition and measured after 6 hrs by ELISA

For CCCCCCCCCCCCCCCCCCCCCCCCCC(=O)N[C@@H](CO[C@H]1O[C@H](CO)[C@H](O)[C@H](O)[C@H]1O)[C@H](O)[C@H](O)CCCCCCCCCCCCCC [RGI-7000], the Activity [1] was “Non-Toxic”, the Activity [2] was “Active” and the Activity [3] was “Active”. For the same compound, the Activity [4] was “Non-Toxic”.

For CCCCCCCCCCCCCCCCCCCCCCCCCC(=O)N[C@@H](CO[C@H]1O[C@H](CO)[C@H](O)[C@H](O)[C@H]1O)C(F)(F)[C@H](O)CCCCCCCCCCCCCC, the Activity [1] was “Non-Toxic”, the Activity [2] was “Active” and the Activity [3] was “Active”. The Activity [4] was “Non-Toxic”.

For CCCCCCCCCCCCCCCCCCCCCCCCCC(=O)N[C@@H](CO[C@H]1O[C@H](CO)[C@H](O)[C@H](O)[C@H]1O)C(F)(F)C(F)(F)CCCCCCCCCCCCCC, the Activity [1] was “Non-Toxic”, the Activity [2] was “Active” and the Activity [3] was “Active”. For the same compound, the Activity [4] was “Non-Toxic”.

With CCCCCCCCCCCCCCCCCCCCCCCCCC(=O)N[C@@H](CO[C@H]1O[C@H](CO)[C@H](O)[C@H](O)[C@H]1O)C(F)(F)[C@@H](O)CCCCCCCCCCCCCC the Activity [1] was “Non-Toxic”, the Activity [2] was “Active” and the Activity [3] was “Active”. For the same compound, the Activity [4] was “Non-Toxic”.
